{
  "source": "patent US9326524B1",
  "about": "“Insect repellent compositions” (Nantucket Spider, LLC, priority 2014, dated 2016)",
  "origin": "cited, not measured here",
  "test_system": "mosquitoes",
  "conditions": "compared with naturally derived PMD in the form of OLE",
  "data": [
    {"smiles": "CC1CCC(C(C)(C)O)C(O)C1", "note": "(stereo not shown) [Pure PMD, p-Menthane-3,8-diol]", "values": [
      {"measurement": "efficacy in repelling mosquitoes", "value": "significantly less efficacious"}
    ]}
  ]
}
